Measured values: patent publication US11078170B2 (Assembly Biosciences, Inc., priority 2017, dated 2021)

What follows are compounds tested on HBV viral production from HepAD38 cells (assay: Activity of test compounds on viral production from HepAD38 cells (viral load by qPCR of HBV core sequence in supernatant)). Conditions: Hepatitis B virus, 120 h, 5 days incubation, HBV DNA in supernatant by qPCR, top concentration 10 μM, read-out: Viral Load EC50 Activity range.
Type: cell-based
Procedure, shortened: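 HepAD38 cells, 50,000/well in tetracycline-free 2% FBS medium, treated 5 days at 37° C. with compound from 10 μM top concentration. HBV DNA in supernatant quantified by TaqMan qPCR of core sequence against DNA standards, relative to DMSO wells; CellTiter-Glo viability read in parallel. EC50/CC50 from four-parameter logistic fit.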

Row | SMILES | EC50
1 | Cc1nn(C)c(C)c1-c1csc([C@H]2C[C@@H](C(=O)Nc3ccc(F)c(Cl)c3)N(C)S(=O)(=O)N2)c1 [HBV-CSU-317-ISO-I, Cis-N-(3-chloro-4-fluorophenyl)-2-methyl-5-(4-(1,3,5-trimethyl-1H-pyrazol-4-yl)thiophen-2-yl)-1,2,6-thiadiazinane-3-carboxamide 1,1-dioxide] | < 1000 nM
2 | CN1[C@H](C(=O)Nc2ccc(F)c(Cl)c2)C[C@H](c2ccc(-c3cnn(C(F)(F)F)c3)s2)NS1(=O)=O [HBV-CSU-321-ISO-I, Cis-N-(3-Chloro-4-fluorophenyl)-2-methyl-5-(5-(1-(trifluoromethyl)-1H-pyrazol-4-yl)thiophen-2-yl)-1,2,6-thiadiazinane-3-carboxamide 1,1-dioxide] | < 1000 nM
3 | CN1[C@@H](C(=O)Nc2ccc(F)c(Cl)c2)C[C@@H](c2ccc(-c3cnn(C(F)(F)F)c3)s2)NS1(=O)=O [HBV-CSU-321-ISO-II, Cis-N-(3-Chloro-4-fluorophenyl)-2-methyl-5-(5-(1-(trifluoromethyl)-1H-pyrazol-4-yl)thiophen-2-yl)-1,2,6-thiadiazinane-3-carboxamide 1,1-dioxide] | > 5000 nM
4 | CN1C(C(=O)Nc2ccc(F)c(Cl)c2)CC(c2ccc(-c3cnn(C(F)(F)F)c3)s2)NS1(=O)=O (centres unmarked) [HBV-CSU-321] | < 1000 nM
5 | CN1[C@H](C(=O)Nc2ccc(F)c(Cl)c2)C[C@H](c2ccc(-c3ncn(C)n3)s2)NS1(=O)=O [HBV-CSU-322-ISO-I, Cis-N-(3-Chloro-4-fluorophenyl)-2-methyl-5-(5-(1-methyl-1H-1,2,4-triazol-3-yl)thiophen-2-yl)-1,2,6-thiadiazinane-3-carboxamide 1,1-dioxide] | < 1000 nM
6 | CN1[C@@H](C(=O)Nc2ccc(F)c(Cl)c2)C[C@@H](c2ccc(-c3ncn(C)n3)s2)NS1(=O)=O [HBV-CSU-322-ISO-II, Cis-N-(3-Chloro-4-fluorophenyl)-2-methyl-5-(5-(1-methyl-1H-1,2,4-triazol-3-yl)thiophen-2-yl)-1,2,6-thiadiazinane-3-carboxamide 1,1-dioxide] | > 5000 nM
7 | CN1[C@H](C(=O)Nc2ccc(F)c(Cl)c2)C[C@H](c2ccc(-c3ncnn3C)s2)NS1(=O)=O [HBV-CSU-323-ISO-I, Cis-N-(3-Chloro-4-fluorophenyl)-2-methyl-5-(5-(1-methyl-1H-1,2,4-triazol-5-yl)thiophen-2-yl)-1,2,6-thiadiazinane-3-carboxamide 1,1-dioxide] | < 1000 nM
8 | CN1[C@@H](C(=O)Nc2ccc(F)c(Cl)c2)C[C@@H](c2ccc(-c3ncnn3C)s2)NS1(=O)=O [HBV-CSU-323-ISO-II, Cis-N-(3-Chloro-4-fluorophenyl)-2-methyl-5-(5-(1-methyl-1H-1,2,4-triazol-5-yl)thiophen-2-yl)-1,2,6-thiadiazinane-3-carboxamide 1,1-dioxide] | 1000 to 5000 nM
9 | CN1[C@H](C(=O)Nc2ccc(F)c(Cl)c2)C[C@H](c2ccc(-c3nncn3C)s2)NS1(=O)=O [HBV-CSU-324-ISO-I, Cis-N-(3-Chloro-4-fluorophenyl)-2-methyl-5-(5-(4-methyl-4H-1,2,4-triazol-3-yl)thiophen-2-yl)-1,2,6-thiadiazinane-3-carboxamide 1,1-dioxide] | < 1000 nM
10 | CN1[C@@H](C(=O)Nc2ccc(F)c(Cl)c2)C[C@@H](c2ccc(-c3nncn3C)s2)NS1(=O)=O [HBV-CSU-324-ISO-II, Cis-N-(3-Chloro-4-fluorophenyl)-2-methyl-5-(5-(4-methyl-4H-1,2,4-triazol-3-yl)thiophen-2-yl)-1,2,6-thiadiazinane-3-carboxamide 1,1-dioxide] | 1000 to 5000 nM
11 | CN1[C@H](C(=O)Nc2ccc(F)c(Cl)c2)C[C@H](c2cc(-c3cnn(C(F)(F)F)c3)cs2)NS1(=O)=O [HBV-CSU-325-ISO-I, Cis-N-(3-Chloro-4-fluorophenyl)-2-methyl-5-(4-(1-(trifluoromethyl)-1H-pyrazol-4-yl)thiophen-2-yl)-1,2,6-thiadiazinane-3-carboxamide 1,1-dioxide] | < 1000 nM
